# Test results: patent US20220174947A1, “ANTIMICROBIAL MIXTURE CONTAINING 4-(3-ETHOXY-4-HYDROXYPHENYL)BUTAN-2-ONE AND AN ALCOHOL COMPOUND, AND COSMETIC COMPOSITION CONTAINING SAME” (L'OREAL, priority 2018, published 2022)
# What was measured:
# Experiment in all cases: Synergistic antimicrobial activity as MIC, 96-well microplate, optical density at 620 nm
# Assay type in all cases: cell-based
# Conditions in all cases: for microbial growth percentage: 0 A
# [1] = test system: Aspergillus niger ATCC 6275
# Text: (§1) FIC Index=(MIC of A with B/MIC of A)+(MIC of B with A/MIC of B [Math. 1]
# (§2) with: • MIC of A with B: minimum concentration of product A in the combination A+B which makes it possible to obtain an inhibitory effect; • MIC of B with A: minimum concentration of product B in the combination A+B which makes it possible to obtain an inhibitory effect; • MIC of A: minimum inhibitory concentration of product A alone; • MIC of B: minimum inhibitory concentration of product B alone. This formula was described for the first time in the article by F. C. Kull, P. C. Eisman, H. D. Sylwestrowka, and R. L. Mayer, Applied Microbiology 9:538-541, 1961.
# The microbial strain Aspergillus niger ATCC 6275, and a double-concentration Sabouraud broth liquid culture medium supplemented with polyoxyethylenated (20 OE) sorbitan monopalmitate (Tween 40 from Croda) and Phytagel© BioReagent were used (i.e. a mixture of 5 g of Phytagel+0.6 g of Tween 40+60 g of Sabouraud broth).
# (§3) A 96-well microplate at an incubation temperature of 32.5° C. is used.
# (§4) The incubation time of the microplate is: • from 24 to 30 h under aerobic conditions for microbial Aspergillus niger ATCC 6275; • from 18 to 24 h under aerobic conditions for Candida albicans ATCC 10231, Pseudomonas aeruginosa ATCC 9027 and Staphylococcus aureus ATCC 6538; • from 24 to 48 h under aerobic conditions for Enterococcus faecalis ATCC 33186.
# (§5) For each compound: A=4-(3-ethoxy-4-hydroxyphenyl) butan-2-one compound B=alcohol compound A 10% (weight/volume) stock solution was prepared by mixing 1 g of compound in 9 ml of aqueous 1% agar solution. Successive dilutions were made with the 1% agar solution.
# (§6) 50 μl of each of the daughter solutions obtained containing compound A or B are added to the microplate wells. 100 μl of Sabouraud liquid nutrient broth inoculated at double concentration with the Aspergillus niger strain and 50 μl of aqueous 1% agar solution are also added thereto.
# (§7) 50 μl of each of the daughter solutions obtained containing compound A and 50 μl of each of the daughter solutions obtained containing compound B are added to the microplate wells. 100 μl of Sabouraud liquid nutrient broth inoculated at double concentration with the strain Aspergillus niger are also added thereto.
# (§8) A positive microbial growth control was also prepared. The positive microbial growth control corresponds to a mixture of 100 μl of aqueous 1% agar solution with 100 μl of Sabouraud liquid nutrient broth inoculated at double concentration with the strain Aspergillus niger in the absence of compounds A and B.
# (§9) An absorbance control was performed in parallel on compounds A and B alone. This control corresponds to 100 μl of double concentration sterile Sabouraud liquid nutrient broth+100 μl of double concentration compound A or B.
# (§10) In the three cases (absorbance control, growth control and test), the final volume present in each of the microplate wells is 200 μl.
# In the two cases (test and control), the inoculum represents the concentration of the Aspergillus niger strain present in the final volume of the wells (200 μl) and is between 2 and 6×10^5 cfu/ml of Aspergillus niger.
# [2] = test system: Staphylococcus aureus ATCC 6538
# Text: as §1, §2
# The microbial strain Staphylococcus aureus ATCC 6538 and a double-concentration nutrient broth liquid culture medium were used.
# as §3, §4, §5, §6, §7, §8, §9, §10
# (§11) The test as described above (tests, absorbance control and growth control) was performed again to test the combination A+B on the following strains Enterococcus faecalis, Staphylococcus aureus, Pseudomonas aeruginosa, Candida albicans, where appropriate.
# [3] = test system: Candida albicans ATCC 10231
# Text: with: • MIC of A with B: minimum concentration of product A in the combination A+B which makes it possible to obtain an inhibitory effect; • MIC of B with A: minimum concentration of product B in the combination A+B which makes it possible to obtain an inhibitory effect; • MIC of A: minimum inhibitory concentration of product A alone; • MIC of B: minimum inhibitory concentration of product B alone. This formula was described for the first time in the article by F. C. Kull, […], and R. L. Mayer, Applied Microbiology 9:538-541, 1961. […] When the FIC index value is less than or equal to 1, it is considered that the combination of test compounds has a synergistic effect. […] A 96-well microplate at an incubation temperature of 32.5° C. is used. […] For each compound: […] 50 μl of each of the daughter solutions obtained containing compound A and 50 μl of each of the daughter solutions obtained containing compound B are added to the microplate wells. 100 μl of Sabouraud liquid nutrient broth inoculated at double concentration with the strain Aspergillus niger are also added thereto. A positive microbial growth control was also prepared. […] An absorbance control was performed in parallel on compounds A and B alone. This control corresponds to 100 μl of double concentration sterile Sabouraud liquid nutrient broth+100 μl of double concentration compound A or B. […] The test as described above (tests, absorbance control and growth control) was performed again to test the combination A+B on the following strains Enterococcus faecalis, Staphylococcus aureus, Pseudomonas aeruginosa, Candida albicans, where appropriate.
# [4] = test system: Pseudomonas aeruginosa ATCC 9027
# Text: with: • MIC of A with B: minimum concentration of product A in the combination A+B which makes it possible to obtain an inhibitory effect; • MIC of B with A: minimum concentration of product B in the combination A+B which makes it possible to obtain an inhibitory effect; • MIC of A: minimum inhibitory concentration of product A alone; • MIC of B: minimum inhibitory concentration of product B alone. This formula was described for the first time in the article by F. C. Kull, […], and R. L. Mayer, Applied Microbiology 9:538-541, 1961. […] When the FIC index value is less than or equal to 1, it is considered that the combination of test compounds has a synergistic effect. The microbial strain Pseudomonas aeruginosa ATCC 9027 and a double-concentration nutrient broth liquid culture medium were used. A 96-well microplate at an incubation temperature of 32.5° C. is used. […] For each compound: […] 50 μl of each of the daughter solutions obtained containing compound A and 50 μl of each of the daughter solutions obtained containing compound B are added to the microplate wells. 100 μl of Sabouraud liquid nutrient broth inoculated at double concentration with the strain Aspergillus niger are also added thereto. A positive microbial growth control was also prepared. […] An absorbance control was performed in parallel on compounds A and B alone. This control corresponds to 100 μl of double concentration sterile Sabouraud liquid nutrient broth+100 μl of double concentration compound A or B. […] The test as described above (tests, absorbance control and growth control) was performed again to test the combination A+B on the following strains Enterococcus faecalis, Staphylococcus aureus, Pseudomonas aeruginosa, Candida albicans, where appropriate.
# [5] = test system: Enterococcus faecalis ATCC 33186
# Text: as §1, §2
# The microbial strain Enterococcus faecalis ATCC 33186 and a double-concentration BHI (Brain Heart Infusion) broth liquid culture medium were used.
# as §3, §4, §5, §6, §7, §8, §9, §10, §11
# [6] = Aspergillus niger, growth <= 25%
# [7] = Staphylococcus aureus, growth <= 25%
# [8] = Enterococcus faecalis, growth <= 25%
compound,measurement,setting,value
"CC(=O)c1ccc(O)cc1 [B1, 4-hydroxyacetophenone]",microbial growth percentage,[1]; 0.0625 B1 weight %,86%
same,microbial growth percentage,[1]; 0.125 B1 weight %,72%
same,microbial growth percentage,[1]; 0.25 B1 weight %,79%
same,microbial growth percentage,[1]; 0.5 B1 weight %,6%
same,% MIC of B1 alone,[1]; [6],0.5%
"Oc1cc(Cl)ccc1Oc1ccc(Cl)cc1Cl [B2, 5-chloro-2-(2,4-dichlorophenoxy)phenol]",microbial growth percentage,[2]; 0.125 B2 weight %,46%
same,microbial growth percentage,[2]; 0.25 B2 weight %,14%
same,% MIC of B2 alone,[2]; [7],0.25%
"Cc1cc(O)cc(C)c1Cl [B5, 4-chloro-3,5-dimethylphenol]",microbial growth percentage,[1]; 0.0625 B5 weight %,99%
same,microbial growth percentage,[1]; 0.125 B5 weight %,103%
same,microbial growth percentage,[1]; 0.25 B5 weight %,31%
same,microbial growth percentage,[1]; 0.5 B5 weight %,−6%
same,% MIC of B5 alone,[1]; [6],0.5%
same,microbial growth percentage,[3]; 0.0625 B5 weight %,73%
same,microbial growth percentage,[3]; 0.125 B5 weight %,28%
same,microbial growth percentage,[3]; 0.25 B5 weight %,1%
same,% MIC of B5 alone,"[3]; Candida albicans, growth <= 25%",0.25%
"CCCCCCCC(=O)OCC(O)CO (centres unmarked) [B6, glyceryl caprylate]",microbial growth percentage,[2]; 0.0625 B6 weight %,83%
same,microbial growth percentage,[2]; 0.125 B6 weight %,87%
same,microbial growth percentage,[2]; 0.25 B6 weight %,53%
same,microbial growth percentage,[2]; 0.5 B6 weight %,48%
same,microbial growth percentage,[2]; 1 B6 weight %,9%
same,% MIC of B6 alone,[2]; [7],1%
same,microbial growth percentage,[4]; 0.1 B6 weight %,123%
same,microbial growth percentage,[4]; 0.2 B6 weight %,109%
same,microbial growth percentage,[4]; 0.4 B6 weight %,−40%
same,% MIC of B6 alone,"[4]; Pseudomonas aeruginosa, growth <= 25%",0.4%
same,microbial growth percentage,[5]; 0.125 B6 weight %,57%
same,microbial growth percentage,[5]; 0.25 B6 weight %,22%
same,microbial growth percentage,[5]; 0.5 B6 weight %,8%
same,microbial growth percentage,[5]; 0.625 B6 weight %,38%
same,% MIC of B6 alone,[5]; [8],0.5%
sorbitan caprylate [B3],microbial growth percentage,[1]; 0.025 B3 weight %,50%
same,microbial growth percentage,[1]; 0.05 B3 weight %,30%
same,microbial growth percentage,[1]; 0.1 B3 weight %,−2%
same,% MIC of B3 alone,[1]; [6],0.1%
same,microbial growth percentage,[5]; 0.125 B3 weight %,134%
same,microbial growth percentage,[5]; 0.25 B3 weight %,61%
same,microbial growth percentage,[5]; 0.5 B3 weight %,62%
same,microbial growth percentage,[5]; 1 B3 weight %,2%
same,% MIC of B3 alone,[5]; [8],1%
